Source: patent US6716987B1, “Derivatives of benzofuran or benzodioxazole compounds” (Kyowa Hakko Kogyo Co., Ltd., priority 1995, dated 2004)

Legend:
phosphodiesterase 4A = target: T1, phosphodiesterase 4A (Homo sapiens, UniProt P27815); assay: Recombinant human PDE4A assay; format: biochemical; conditions: for inhibition at 0.1 µM: 10^−7 M, read-out: Enzyme Inhibitory Activity (%, 10^−7 M)
T1 construct: made in house; host or cells: E. coli

[1] = system: cAMP-specific phosphodiesterase (PDE IV); assay: Inhibition of the PDE IV enzyme derived from a dog trachea; format: biochemical; conditions: test compound 10^−6 M; PDE IV from dog tracheal smooth muscle; substrate cAMP 1 μM
Outline: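 Enzyme purified from dog tracheal smooth muscle; [3H]cAMP substrate at 1 μM final in 50 mM BES pH 7.2, 1 mM MgCl2, 0.1 mg/ml soybean trypsin inhibitor, 30° C for 10–30 min, 1.7% DMSO final. After HCl stop, product converted to adenosine by 5′-nucleotidase, separated on DEAE-Sephadex and scintillation-counted.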

T1 sequence (P27815 224-886 limits assumed): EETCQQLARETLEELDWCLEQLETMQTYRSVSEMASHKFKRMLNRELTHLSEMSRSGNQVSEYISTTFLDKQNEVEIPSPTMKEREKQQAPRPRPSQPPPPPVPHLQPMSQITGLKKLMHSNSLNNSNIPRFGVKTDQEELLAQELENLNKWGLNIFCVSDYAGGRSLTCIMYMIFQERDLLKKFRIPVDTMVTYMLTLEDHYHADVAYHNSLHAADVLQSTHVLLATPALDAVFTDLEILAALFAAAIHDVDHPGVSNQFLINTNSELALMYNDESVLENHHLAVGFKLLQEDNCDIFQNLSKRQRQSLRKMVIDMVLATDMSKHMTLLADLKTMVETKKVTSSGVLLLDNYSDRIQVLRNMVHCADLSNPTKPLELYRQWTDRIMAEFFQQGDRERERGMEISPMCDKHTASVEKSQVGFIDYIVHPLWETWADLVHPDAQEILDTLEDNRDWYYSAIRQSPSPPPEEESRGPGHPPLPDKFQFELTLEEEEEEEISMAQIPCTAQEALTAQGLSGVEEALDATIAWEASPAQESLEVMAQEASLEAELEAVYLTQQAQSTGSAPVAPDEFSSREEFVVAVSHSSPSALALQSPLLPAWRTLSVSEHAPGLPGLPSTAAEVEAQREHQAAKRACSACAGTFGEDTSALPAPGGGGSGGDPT

SMILES	Enzyme Inhibitory Activity (%, 10^−7 M) (phosphodiesterase 4A) [%]	inhibition at 0.1 µM (phosphodiesterase 4A) [%]	Enzyme Inhibitory Activity (%, 10^−6 M) [1] [%]	melting point
COc1ccc(C(=O)Cc2c(Cl)cncc2Cl)c2cc(-c3ccncc3)oc12.Cl.Cl [Compound 114, 4-[2-(3,5-Dichloro-4-pyridyl)-1-oxoethyl]-7-methoxy-2-(4-pyridyl)benzofuran.2 hydrochloride]	100			
COc1ccc(C(=O)Cc2ccncc2)c2cc(C(=O)Nc3ccccc3)oc12.Cl [Compound 165, 7-Methoxy-4-[1-oxo-2-(4-pyridyl)ethyl]-2-(phenylaminocarbonyl)benzofuran.hydrochloride]	64			
COc1ccc(C(=O)Cc2c(Cl)cncc2Cl)c2c1OC1(CCCCCC1)O2 [Compound 177, 7-[2-(3,5-Dichloro-4-pyridyl)-1-oxoethyl)-4-methoxy-spiro[1,3-benzodioxole-2,1′-cycloheptane]]		93		
CCOC(=O)c1coc2c(OC)ccc(C(=O)Cc3c(Cl)cncc3Cl)c12 [Compound 159, Ethyl 4-[2-(3,5-dichloro-4-pyridyl)-1-oxoethyl]-7-methoxybenzofuran-3-carboxylate]		99		
COc1ccc(C(=O)Cc2ccncc2)c2c1OC1(CCCC1)O2.Cl [Compound 141, 4-Methoxy-7-[1-oxo-2-(4-pyridyl)ethyl]-spiro[1,3-benzodioxole-2,1′-cyclopentane].hydrochloride]	76			
COc1ccc(C(=O)Cc2c(Cl)c[n+]([O-])cc2Cl)c2c1OCCCCO2 [Compound 195, 7-[2-(3,5-dichloro-N-oxo-4-pyridyl)-1-oxoethyl]-10-methoxy-2,3,4,5-tetrahydro-1,6-benzodioxocin]	93			
COc1ccc(C(=O)Cc2c(Cl)cncc2Cl)c2c1OC1(CCCC1)O2 [Compound 140, 7-[2-(3,5-Dichloro-4-pyridyl)-1-oxoethyl]-4-methoxy-spiro[1,3-benzodioxole-2,1′-cyclopentane]]		100		
COc1ccc(C(=O)Nc2c(Cl)cncc2Cl)c2c1OC(C)(C)O2 [Compound 199, 7-(3,5-dichloro-4-pyridylaminocarbonyl)-4-methoxy-2,2-dimethyl-3,4-benzodioxole]	57			
COc1ccc(C(=O)Nc2c(Cl)cncc2Cl)c2c1OC(C)(C)CC2 [Compound 122, 5-(3,5-Dichloro-4-pyridylaminocarbonyl)-8-methoxy-2,2-dimethyl-3,4-dihydrobenzopyran]			92	155 to 156 °C
COc1ccc(CSc2ccncc2)c2c1OC(C)(C)C2 [Compound 48, 7-Methoxy-2,2-dimethyl-4-(4-pyridylthiomethyl)-2,3-dihydrobenzofuran]			41	109 to 113 °C
COc1ccc(C(=O)Nc2c(Cl)cncc2Cl)c2c1OCC2CC(=O)Nc1c(Cl)cncc1Cl (racemic) [Compound 32, (±)-4-[(3,5-Dichloro-4-pyridyl)aminocarbonyl]-3-[(3,5-dichloro-4-pyridyl)aminocarbonyl]methyl-7-methoxy-2,3-dihydrobenzofuran]			81	> 300 °C
COc1ccc(C(=O)Cc2c(Cl)cncc2Cl)c2c1OCC2C (racemic) [Compound 103, (±)-4-[2-(3,5-Dichloro-4-pyridyl)-1-oxoethyl]-7-methoxy-3-methyl-2,3-dihydrobenzofuran]			88	99 to 104 °C
CCOC(=O)CC1COc2c(OC)ccc(C(=O)NC3CCCCC3)c21 (racemic) [Compound 8, (±)-4-Cyclohexylaminocarbonyl-3-ethoxycarbonylmethyl-7-methoxy-2,3-dihydrobenzofuran]			5	197 to 199 °C
COc1ccc(CNC(=O)CC2COc3c(OC)ccc(C(=O)Nc4c(Cl)cncc4Cl)c32)cc1 (racemic) [Compound 28, (±)-4-[(3,5-Dichloro-4-pyridyl)aminocarbonyl]-7-methoxy-3-[(4-methoxybenzyl)aminocarbonyl]methyl-2,3-dihydrobenzofuran]			83	269 to 271 °C
CCOC(=O)Cc1coc2c(OC)ccc(C(=O)Nc3c(Cl)cncc3Cl)c12 [Compound 43, 3-Ethoxycarbonylmethyl-4-[(3,5-dichloro-4-pyridyl)-aminocarbonyl]-7-methoxybenzofuran]			62	216 to 218 °C
COc1ccc(C(=Cc2ccncc2)c2ccccc2)c2c1OCC2C (racemic) [Compound 80, (±)-7-Methoxy-3-methyl-4-[1-phenyl-2-(4-pyridyl)ethenyl]-2,3-dihydrobenzofuran]			17	103 to 105.5 °C
CCC1COc2c(OC)ccc(C(=O)Nc3c(Cl)cncc3Cl)c21 (racemic) [Compound 3, (±)-4-[(3,5-Dichloro-4-pyridyl)aminocarbonyl]-3-ethyl-7-methoxy-2,3-dihydrobenzofuran]			75	202 to 204 °C
COc1ccc(C(=O)NC2CCCCC2)c2c1OCC2CC(=O)O (racemic) [Compound 12, (±)-3-Carboxymethyl-4-cyclohexylaminocarbonyl-7-methoxy-2,3-dihydrobenzofuran]			8	246 to 247 °C
COc1ccc(C(=O)Nc2c(Cl)cncc2Cl)c2cc(-c3ccncc3)oc12 [Compound 38, 4-[(3,5-Dichloro-4-pyridyl)aminocarbonyl]-7-methoxy-2-(4-pyridyl)benzofuran]			89	289 to 290 °C
CCOC(=O)CC1COc2c(OC)ccc(C(=O)Nc3c(Cl)cncc3Cl)c21 (racemic) [Compound 5, (±)-4-[(3,5-Dichloro-4-pyridyl)aminocarbonyl]-3-ethoxycarbonylmethyl-7-methoxy-2,3-dihydrobenzofuran]			85	186 to 188 °C
CCOC(=O)/C(=C/c1ccc(OC)c2c1CC(C)(C)O2)c1ccncc1 [Compound 87, (E)-4-[2-Ethoxycarbonyl-2-(4-pyridyl)ethenyl]-7-methoxy-2,2-dimethyl-2,3-dihydrobenzofuran]			61	98 to 100 °C
COc1ccc(C(=O)Nc2c(Cl)cncc2Cl)c2c1OCC2CC(=O)N1CCN(c2ccccc2)CC1 (racemic) [Compound 21, (±)-4-[(3,5-Dichloro-4-pyridyl)aminocarbonyl]-7-methoxy-3-[(4-phenyl-1-piperazinyl)carbonyl]methyl-2,3-dihydrobenzofuran]			84	224 °C
CCCCc1cc2c(C(=O)Nc3c(Cl)cncc3Cl)ccc(OC)c2o1 [Compound 36, 2-Butyl-4-(3,5-dichloropyridin-4-ylaminocarbonyl)-7-methoxybenzofuran]			87	160 to 164 °C
COc1ccc(C(=O)Nc2c(Cl)cncc2Cl)c2c1OCC2CC(=O)NCc1cccnc1 (racemic) [Compound 18, (±)-4-[(3,5-Dichloro-4-pyridyl)aminocarbonyl]-7-methoxy-3-[(3-pyridylmethyl)aminocarbonyl]methyl-2,3-dihydrobenzofuran]			81	258 to 261 °C (dec.)
